Laboratory results taken from ChEMBL document CHEMBL1141855, “Trypargine alkaloids from a previously undescribed Eudistoma sp. ascidian” (J Nat Prod, 1999).

Test: Toxicity in iv dosed mouse
Type: organism-based
Settings: in vivo

## N=C(N)NCCCC1NCCc2c1[nH]c1ccccc21 (stereo unspecified) [TRYPARGINE]
  LD50: 16.9 mg/kg
